Laboratory results as given in US20060233857A1, “Degradable elastomeric network” (priority 2005, published 2006).
Structures can show the parent of a compound that is named as a salt. Where two headings read alike, the source gives them in different places.

How the values were obtained:
[1] = cited from earlier work
[2] = Diffusivity by Pulsed Field Gradient Nuclear Magnetic Resonance; assay type: physicochemical; conditions: 37° C.
Method: Goserelin acetate and vitamin B12 were incorporated into cylindrical polymer matrices as described in Example 2, but using only PEGD 24000 g/mol. Goserelin acetate is a peptide having the sequence Pyr-His-Trp-Ser-Tyr-D-Ser(tBu)-Leu-Arg-Pro-Azagly-NH2 acetate salt. Its molecular weight is 1269 g/mol and it has a water solubility of 20 mg/mL at 25° C. […] The diffusivities of these two compounds was determined at 37° C. using Pulsed Field Gradient Nuclear Magnetic Resonance. The measured diffusivities were 2.8±0.1 and 2.6±0.1 (10^−6) cm^2/s for vitamin B12 and goserelin, respectively. These diffusivities are essentially the same. In vitro release experiments on these cylinders were performed as described in Example 2. […] As the diffusivities of the two compounds are very similar, and degradation of the polymer occurs slowly, release cannot be controlled by either diffusion or polymer degradation. The higher release rate must therefore be a result of the higher aqueous solubility of the goserelin acetate. Thus, release is driven by the dissolution rate of the compound in the aqueous regions of the polymer matrix.

[3] = Effect of cross-linking UV irradiation on vitamin B12 absorbance; assay type: physicochemical; conditions: 10 mW/cm^2 long-wave UV 5 minutes, with photo-initiator, in ethyl acetate or non-acrylated polymer solution
Method: As vitamin B12 absorbs within the UV region, it was important to determine whether the cross-linking conditions affected the vitamin B12. The vitamin B12 was therefore suspended in ethyl acetate in the presence of the photo-initiator, and in a non-acrylated polymer solution also containing the photo-initiator, and subjected to 10 mW/cm^2 long-wave UV irradiation for 5 minutes. The vitamin B12 was then filtered from solution, dried, and dissolved in varying concentrations and their absorbance measured and compared to that of solutions prepared from the as-received vitamin B12.

[4] = In vitro release of goserelin acetate and vitamin B12 from ASCP 2700 / PEGD 24000 cylinders; assay type: physicochemical; conditions: 90% ASCP 2700 and 10% PEGD 24000 cylinders, loading 1 w/w %
From the text: Acrylated star-poly(ε-caprolactone-co-D,L-lactide) (ASCP) of molecular weight 2700 g/mol was co-dissolved in tetrahydrofuran with poly(ethylene glycol)diacrylate (PEGD) of molecular weight 4000 g/mol or 24000 g/mol. The total polymer concentration was 1 g/mL THF. The mass ratio of PEGD:ASCP was 1:9 (10% PEGD). In this solution was suspended vitamin B12 particles that had been ground and sieved to less than 100 μm in diameter. The total mass of vitamin B12 to polymer was 1:99 (1% vitamin B12). 1.5 w/w % of 2,2-dimethoxy-2-phenyl-acetophenone (DMPA) photoinitiator was also included. The suspension was injected into a 1.8 mm diameter glass tube to a length of 34 cm and sealed with parafilm. […] The concentration of vitamin B12 in the release samples was measured with a Spectromax microplate spectrophotometer. 0.250 mL of vitamin B12 sample per well was added into a 96 well microplate, and the absorbance of these samples was read at 381 nm. […]
Goserelin acetate and vitamin B12 were incorporated into cylindrical polymer matrices as described in Example 2, but using only PEGD 24000 g/mol. […] The diffusivities of these two compounds was determined at 37° C. using Pulsed Field Gradient Nuclear Magnetic Resonance. The measured diffusivities were 2.8±0.1 and 2.6±0.1 (10^−6) cm^2/s for vitamin B12 and goserelin, respectively. […]

## vitamin B12
[1]; temperature not given
  water solubility: 12.5 mg/mL
[2]
  diffusivity: 2.8±0.1 (10^−6) cm^2/s
[3]
  change in the absorbance of the vitamin B12 due to cross-linking conditions: no significant change

## CC(C)C[C@H](NC(=O)[C@@H](COC(C)(C)C)NC(=O)[C@H](Cc1ccc(O)cc1)NC(=O)[C@H](CO)NC(=O)[C@H](Cc1c[nH]c2ccccc12)NC(=O)[C@H](Cc1cnc[nH]1)NC(=O)[C@@H]1CCC(=O)N1)C(=O)N[C@@H](CCCNC(=N)N)C(=O)N1CCC[C@H]1C(=O)NNC(N)=O [Goserelin acetate, Pyr-His-Trp-Ser-Tyr-D-Ser(tBu)-Leu-Arg-Pro-Azagly-NH2 acetate salt]
[1]; 25° C.
  water solubility: 20 mg/mL
[2]
  diffusivity: 2.6±0.1 (10^−6) cm^2/s
[4]
  release rate compared with vitamin B12 (in words): appreciably faster rate
